Data: publication PMC4965473 (Frontiers in Physiology, 2016)
“Also recorded” adds a separate entry of the source. Counter-ions that a name gives are not always drawn.

What was measured:
[1] = test system: G34A mutant of M2TMD21−49; set-up: species or system influenza A; conditions: pH 5.5
wt M2TMD21−49 [2] = test system: wt M2TMD21−49; set-up: species or system influenza A; conditions: pH 5.5
M2TMD21−49 [3] = molecular target: T1, M2TMD21−49 (Influenza A virus, UniProt P0DOF5, L46C); assay type: binding; conditions: pH 5.5
wt M2TMD21−49 [4] = test system: wt M2TMD21−49; set-up: species or system influenza A; conditions: pH 5.5; remark: listed apart in the source
M2TMD21−49 [5] = molecular target: T1, M2TMD21−49

NC12CC3CC(CC(C3)C1)C2 [amantadine, amantadine hydrochloride]
effect of amantadine on C-terminal conformation / inter-spin distances of G34A mutant [1]: marginal if any effect on M2TMD C-terminal conformation; also recorded: Inter-spin distances do not change upon the addition of amantadine
narrowing of Gaussian widths (σ) in the presence of amantadine (wt M2TMD21−49 [2]): ca. 2 Å
r1, Gaussian mean (proximal distance) (wt M2TMD21−49 [2]): 20.8 Å
r2, Gaussian mean (lateral distance) (wt M2TMD21−49 [2]): 29 Å
shortening of inter-spin distances upon binding of amantadine (wt M2TMD21−49 [2]): 5–8 Å
reduction of k4d in the presence of amantadine (M2TMD21−49 [3]): 10 -fold
maximum increase in DEER modulation depth upon binding of amantadine (wt M2TMD21−49 [4]): 23–30%
oligomeric species seen in EM micrographs (M2TMD21−49 [5]): monomers, dimers, and tetramers
